The values that follow are results of earlier work, collected in patent US20070092440A1, “Bone localising radiopharmaceutical and tubulin-interacting compound combinatorial” (priority 2003, published 2007).

Each structure is given as a SMILES string.

For data set [1] the following is noted: in vivo.
In data set [2] the test system is HRPC patients with bone metastases.
For data set [3] the following is noted: repeated dosing with 1.0 mCi/kg.
Data set [4] relates to bone pain, osteoblastic metastatic bone lesions. The settings on record: for treated patients with symptomatic relief of bone pain: in vivo.
The conditions of data set [5]: in bone.
The conditions of data set [6]: supplied frozen.
For data set [7], the system named is leukocyte and platelet counts. The settings on record: 1.0 mCi/kg.

Regarding `CC(=O)O[C@@]12CO[C@@H]1C[C@H](O)[C@@]1(C)C(=O)[C@H](O)C3=C(C)[C@@H](OC(=O)[C@H](O)[C@@H](NC(=O)OC(C)(C)C)c4ccccc4)C[C@@](O)([C@@H](OC(=O)c4ccccc4)[C@H]21)C3(C)C` [docetaxel], in data set [1], the myelosuppression entry is recorded as “Myelosuppression has been observed”.

With `COc1cccc2c1C(=O)c1c(O)c3c(c(O)c1C2=O)C[C@@](O)(C(=O)CO)C[C@@H]3O[C@H]1C[C@H](N)[C@H](O)[C@H](C)O1` [doxorubicin], in data set [2] (72 HRPC patients with bone metastases, randomized), the overall survival was 16.8 months. Also, the “incidence of Grade 3/4 neutropenia” value in data set [2] (in vivo) is listed as 22%.

On to `O=P([O-])(O)CN(CCN(CP(=O)([O-])O)CP(=O)(O)O)CP(=O)([O-])O.[153Sm+3]` [samarium Sm 153 lexidronam], for which the “cumulative toxicity on repeated dosing” value in data set [3] is “not associated with cumulative toxicity”. Besides, the myelosuppression entry in data set [1] is reported as “Myelosuppression has been observed”. Also, for the setting “after administration”, the “time in which the majority of excretion occurs” value is ≤ 8 h and the “time to complete excretion” value is ≤ 12 h. Also, under “in vivo”, the clearance route entry is “exclusively renal” and the “uptake by nonosseous tissue” value was “no significant uptake”. Also, the “patients with pain relief at Week 4 who still had pain relief at Week 16” value in data set [4] (1.0 mCi/kg dose group) is “two-thirds”. For the same molecule, the “treated patients with symptomatic relief of bone pain” value in data set [4] is “approximately 80%”. Further, in data set [5], the range of emission is 1.7 mm. For the same molecule, the “drug product expiry after the time of calibration” value in data set [6] is 48 h. For the same molecule, in data set [7], the “median time of nadir of leukocyte and platelet counts” value is listed as 4 weeks; the “patients with Grade 3/4 haematologic toxicity” value is < 10%; the “time by which recovery of counts is generally complete” value was 5-8 weeks.

As to `[89Sr+2].[Cl-].[Cl-]` [strontium 89 chloride], in data set [4], the “treated patients with symptomatic relief of bone pain” value is “approximately 80%”.
